Read-outs that look alike come from different tables or passages of the source.
Tests used:
J774 cells = experiment: ACAT inhibitory activity (anti-foamation activity) in J774 cells; assay type: cell-based; conditions: for IC50: J774 cells, 10 µg/ml 25-OH cholesterol, 18 hours, cholesterol ester = TC minus FC per protein, read-out: Enzyme (J774) IC50; for IC50 (HepG2) / IC50 (J774): ratio HepG2 / J774
Method: (§1) J774 cells or HepG2 cells were spread on a 24-well plate. The cells were incubated in a 5% CO2 incubator at 37°C for 24 hours using DMEM in the case of the J774 cells and a MEM culture solution in the case of the HepG2 cells (both containing 10% fetal calf serum).
(§2) The medium was removed, and the residue was washed twice with PBS, then extracted with 1.5 ml of a hexane:isopropanol (3:2) mixture, and concentrated to dryness. The extract was dissolved in 0.2 ml of isopropanol containing 10% Triton X-100. Total cholesterol (TC) and free cholesterol (FC) were measured using Cholesterol E Test Wako (supplied by Wako Pure Chemical Industries, Ltd.) and Free Cholesterol E Test Wako (supplied by Wako Pure Chemical Industries, Ltd.).
(§3) The cell extract residue was solubilized in 0.25 ml of 2N NaOH at 37°C for 30 minutes, and the protein amount was measured using BCA Protein Assay Reagent (Pierce).
(§4) The amount of cholesterol based on the protein was calculated from the difference between TC and FC, and an IC50 value was obtained from the calculation in contrast with the control.

HepG2 cells = experiment: ACAT inhibitory activity (anti-foamation activity) in HepG2 cells; assay type: cell-based; conditions: 10 µg/ml 25-OH cholesterol, 18 hours, cholesterol ester = TC minus FC per protein, read-out: Enzyme (HepG2) IC50
Method: as §1, §2, §3, §4

[1] = target: ACAT enzyme from the blood vessel wall (Oryctolagus cuniculus, UniProt G1SUQ0); experiment: ACAT inhibitory activity, microsomal enzyme from the blood vessel wall (breast aorta); assay type: biochemical, rabbit; conditions: for IC50 (B‡) / IC50 (A‡): ratio small intestine / blood vessel wall
Sequence of ACAT enzyme from the blood vessel wall (G1SUQ0 entry or part of it): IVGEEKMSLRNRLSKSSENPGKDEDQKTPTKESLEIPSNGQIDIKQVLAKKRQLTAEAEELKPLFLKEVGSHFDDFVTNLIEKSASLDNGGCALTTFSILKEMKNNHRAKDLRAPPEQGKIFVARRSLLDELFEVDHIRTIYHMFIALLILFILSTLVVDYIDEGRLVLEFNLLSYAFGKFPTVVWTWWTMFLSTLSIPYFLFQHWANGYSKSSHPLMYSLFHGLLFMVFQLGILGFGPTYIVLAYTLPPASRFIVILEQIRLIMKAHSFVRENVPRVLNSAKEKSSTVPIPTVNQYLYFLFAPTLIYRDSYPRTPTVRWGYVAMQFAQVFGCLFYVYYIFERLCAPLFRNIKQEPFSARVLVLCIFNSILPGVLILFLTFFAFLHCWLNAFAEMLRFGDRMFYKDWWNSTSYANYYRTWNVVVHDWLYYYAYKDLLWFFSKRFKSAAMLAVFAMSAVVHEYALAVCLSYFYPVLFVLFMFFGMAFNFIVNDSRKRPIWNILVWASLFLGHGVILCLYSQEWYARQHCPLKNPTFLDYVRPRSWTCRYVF
Method: A microsome was prepared from the breast aorta of a rabbit which had been fed with 1% cholesterol food for 8 weeks in a usual manner, and suspended in a 0.15 M phosphate buffer solution (pH 7.4) to form an enzyme solution. An enzyme solution derived from the small intestine was prepared from the small intestine of a rabbit that had eaten a normal food.
To this solution were added 10 µl of the enzyme solution, and the mixture was reacted at 37°C for 5 minutes (for 3 minutes in the case of the small intestine). Then, 3 ml of a chloroform/methanol (2/1) mixture and 0.5 ml of 0.04 N hydrochloric acid were added thereto to stop the reaction. The lipid was then extracted. The solvent layer was concentrated to dryness, and dissolved in hexane. The solution was spotted on a TLC plate (supplied by Merck Co.). The elution was conducted with a hexane:ether:acetic acid (75:25:1) mixture.
The radioactivity of the resulting cholesterol ester fraction was measured using BAS 2000 (supplied by Fuji Photo Film Co., Ltd.). An IC50 value was obtained from the calculation in contrast with a control containing only DMSO.

| IC50 (J774 cells; Mus musculus) | IC50 (HepG2) / IC50 (J774) (J774 cells) | IC50 (HepG2 cells; Homo sapiens) | IC50 ([1]; A‡: the blood vessel wall, microsome from breast aorta of rabbit fed 1% cholesterol food for 8 weeks, 14C-Oleoyl-CoA 40 µM, 37°C, 5 minutes) | IC50 (B‡) / IC50 (A‡) [1] | IC50 (J774 cells) | IC50 (HepG2 cells) | Compound |
| --- | --- | --- | --- | --- | --- | --- | --- |
| 560 nM | 9.5 | 5300 nM | 450 nM | 1.9 | – | – | CC(C)c1cccc(C(C)C)c1NC(=O)C(C)(C)CCCOc1ccc2c(c1)C=C(c1nccn1C)C(CCc1ccc(F)cc1)O2 (centres unmarked) [Control 1, 5-[2-(2-(4-fluorophenyl)ethyl)-3-(1-methyl-1H-imidazol-2--yl)-2H-1-benzopyran-6-yl]oxy-2,2-dimethyl-N-(2,6-diisopropylphenyl)pentanamide, reference compound] |
| 57 nM | 94.7 | 5400 nM | – | – | – | – | CCSc1cc(C)nc(SCC)c1NC(=O)CSc1nc2ccccc2[nH]1 [Compound No. 831, 2-(benzimidazol-2-ylthio)-N-[2,4-bis(ethylthio)-6-methyl-3-pyridyl]acetamide] |
| 1900 nM | 0.8 | 1600 nM | – | – | – | – | CC(C)c1cccc(C(C)C)c1NC(=O)CCCCCSc1nc2ccccc2o1 [Control 5, 6-(benzoxazol-2-ylthio)-N-(2,6-diisopropylphenyl)hexanamide, reference compound] |
| – | 0.6 | – | – | – | 4.2 nM | 2.4 nM | Cc1cc(SC(C)C)c(NC(=O)CCCCCCCCSc2nc3cccc(C(F)(F)F)c3o2)c(SC(C)C)n1 [compound 1294, 9-(7-trifluoromethylbenzoxazol-2-ylthio)-N-[2,4-bis(isopropylthio)-6-methyl-3-pyridyl] nonanamide] |
| 3.6 nM | 8.1 | 29 nM | – | – | – | – | CSc1cc(C)nc(SC)c1NC(=O)CCCCCCCSc1nc2ccccc2s1 [Compound No. 797, 8-(benzthiazol-2-ylthio)-N-[2,4-bis(methylthio)-6-methyl-3-pyridyl)octanamide] |

Continued, compound first:

| Compound | IC50 (J774 cells; Mus musculus) | IC50 (HepG2) / IC50 (J774) (J774 cells) | IC50 (HepG2 cells; Homo sapiens) | IC50 ([1]; A‡: the blood vessel wall, microsome from breast aorta of rabbit fed 1% cholesterol food for 8 weeks, 14C-Oleoyl-CoA 40 µM, 37°C, 5 minutes) | IC50 (B‡) / IC50 (A‡) [1] | IC50 (J774 cells) | IC50 (HepG2 cells) |
| --- | --- | --- | --- | --- | --- | --- | --- |
| CCSc1cc(C)nc(SCC)c1NC(=O)CCCCCSc1nc2ccccc2o1 [Compound No. 815, 6-(benzoxazol-2-ylthio)-N-[2,4-bis(ethylthio)-6-methyl-3-pyridyl]hexanamide] | 120 nM | 21.7 | 2600 nM | – | – | – | – |
| Cc1cc(SC(C)C)c(NC(=O)CCCCCCSc2nc3cccc(C(F)(F)F)c3o2)c(SC(C)C)n1 [Compound No. 1292, 7-(7-trifluoromethylbenzoxazol-2-ylthio)-N-[2,4-bis(isopropylthio)-6-methyl-3-pyridyl] heptanamide] | – | 11.1 | – | – | – | 2.7 nM | 30 nM |
| CCSc1cc(C)nc(SCC)c1NC(=O)CSc1nc2ccccc2o1 [Compound No. 811, 2-(benzoxazol-2-ylthio)-N-[2,4-bis(ethylthio)-6-methyl-3-pyridyl]acetamide] | 50 nM | 36.0 | 1800 nM | – | – | – | – |
| CSc1cc(C)nc(SC)c1NC(=O)CCCCCCCSc1nc2cccc(C(F)(F)F)c2o1 [Compound No. 1253, 8-(7-trifluoromethylbenzoxazol-2-ylthio)-N-[2,4-bis(methylthio)-6-methyl-3-pyridyl]octanamide] | 4.1 nM | 1.1 | 4.4 nM | – | – | – | – |
| Cc1cc(SC(C)C)c(NC(=O)CCCCCCSc2nc3c(C)c(Cl)cc(C(C)C)c3o2)c(SC(C)C)n1 [Compound No. 1302, 7-(5-chloro-7-isopropyl-4-methylbenzoxazol-2-ylthio)-N-[2,4-bis(isopropylthio)-6-methyl-3-pyridyl]heptanamide] | 2.1 nM | 7.1 | 15 nM | – | – | – | – |
| CCCCCCCCCN(CC(C)(C)C)C(=O)N[C@H]1CCCC[C@@H]1OC(=O)CCNC(=O)C1OC(C)(C)OCC1(C)C (stereo partly drawn) [Control 3, N-(2,2,5,5-tetramethyl-1,3-dioxan-4-ylcarbonyl)-β-alanine 2 (S)-[N'-(2,2-dimethylpropyl)-N'-nonylureido]-1(S)-cyclohexyl ester, reference compound] | 320 nM | – | 1300 nM | – | – | – | – |
| CCSc1cc(C)nc(SCC)c1NC(=O)CCCCCCSc1nc2c(C)c(Cl)cc(C(C)C)c2o1 [Compound No. 1282, 7-(5-chloro-7-isopropyl-4-methylbenzoxazol-2-ylthio)-N-[2,4-bis(ethylthio)-6-methyl-3-pyridyl]heptanamide] | 3.2 nM | 1.9 | 6.2 nM | – | – | – | – |
| CCCCCCCN(CCCCCSc1nc(-c2ccccc2)c(-c2ccccc2)[nH]1)c1nc2ccccc2o1 [Control 4, [5-(4,5-diphenyl-1H-imidazol-2-ylthio)pentyl]-N-heptyl-2-benzoxazolamie, reference compound] | 120 nM | 6.3 | 750 nM | – | 1.4 | – | – |
| CCSc1cc(C)nc(SCC)c1NC(=O)CCCCCCCCSc1nc2ccccc2o1 [Compound No. 818, 9-(benzoxazol-2-ylthio)-N-[2.4-bis(ethylthio)-6-methyl-3-pyridyl]nonanamide] | 62 nM | 1.0 | 63 nM | – | – | – | – |
| CSc1cc(C)nc(SC)c1NC(=O)CCCCCSc1nc2ccccc2s1 [Compound No. 795, 6-(benzothiazol-2-ylthio)-N-[2,4-bis(methylthio)-6-methyl-3-pyridyl]hexanamide] | 50 nM | 7.0 | 350 nM | – | – | – | – |
